# According to ChEMBL document CHEMBL4043111, “Asymmetric synthesis and evaluation of epoxy-α-acyloxycarboxamides as selective inhibitors of cathepsin L” (Bioorg Med Chem, 2017):
# pIC50, pKi: −log10 of the molar value. Several values for one entry are separate records, joined by “and”; a condition that tells them apart may be missing. Equal entries are not always repeated. Activity calls are given as the source filed them. The rule behind the calls is not given here.
# Assays:
# Procathepsin L [1] = biological target: T1, Procathepsin L (Homo sapiens, UniProt P07711); experiment: Inhibition of human liver cathepsin L peincubated for 5 mins followed by Z-FR-MCA addition by spectrofluorimetric method
# Target sequence in this assay (P07711 whole entry): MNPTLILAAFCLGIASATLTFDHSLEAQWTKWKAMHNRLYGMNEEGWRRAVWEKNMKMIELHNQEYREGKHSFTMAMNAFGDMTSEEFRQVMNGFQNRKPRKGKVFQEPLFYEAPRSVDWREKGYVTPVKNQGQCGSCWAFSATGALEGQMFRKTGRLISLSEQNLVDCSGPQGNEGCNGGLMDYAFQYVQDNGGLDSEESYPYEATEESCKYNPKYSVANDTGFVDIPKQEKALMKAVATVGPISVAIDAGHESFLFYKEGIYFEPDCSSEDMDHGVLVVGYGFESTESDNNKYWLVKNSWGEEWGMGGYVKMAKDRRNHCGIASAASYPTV
# Procathepsin L [2] = biological target: T1, Procathepsin L; experiment: Inhibition of human liver cathepsin L at 25 uM peincubated for 5 mins followed by Z-FR-MCA addition by spectrofluorimetric method relative to control
# Target sequence in this assay (P07711 114-333 limits assumed): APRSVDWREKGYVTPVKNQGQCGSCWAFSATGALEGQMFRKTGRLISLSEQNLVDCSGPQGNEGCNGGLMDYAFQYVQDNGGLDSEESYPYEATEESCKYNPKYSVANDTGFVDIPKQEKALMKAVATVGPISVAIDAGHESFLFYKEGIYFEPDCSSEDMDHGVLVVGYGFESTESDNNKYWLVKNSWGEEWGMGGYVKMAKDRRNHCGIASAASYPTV
# [3] = biological target: T2, Cathepsin K (Homo sapiens) (UniProt P43235); experiment: Inhibition of cathepsin K (unknown origin) at 25 uM peincubated for 5 mins followed by Z-FR-MCA addition by spectrofluorimetric method relative to control
# T2 sequence (whole entry): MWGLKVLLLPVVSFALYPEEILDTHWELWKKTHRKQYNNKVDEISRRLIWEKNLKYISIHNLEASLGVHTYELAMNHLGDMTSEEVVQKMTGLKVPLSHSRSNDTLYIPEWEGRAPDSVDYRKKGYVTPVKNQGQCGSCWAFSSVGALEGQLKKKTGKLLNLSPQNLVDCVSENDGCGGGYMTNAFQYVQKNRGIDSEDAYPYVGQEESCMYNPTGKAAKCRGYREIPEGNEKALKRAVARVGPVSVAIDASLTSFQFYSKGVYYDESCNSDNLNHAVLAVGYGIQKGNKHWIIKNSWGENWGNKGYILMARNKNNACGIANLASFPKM
# [4] = biological target: T3, Cathepsin L2 (Homo sapiens) (UniProt O60911); experiment: Inhibition of cathepsin V (unknown origin) at 25 uM peincubated for 5 mins followed by Z-FR-MCA addition by spectrofluorimetric method relative to control
# T3 sequence (whole entry): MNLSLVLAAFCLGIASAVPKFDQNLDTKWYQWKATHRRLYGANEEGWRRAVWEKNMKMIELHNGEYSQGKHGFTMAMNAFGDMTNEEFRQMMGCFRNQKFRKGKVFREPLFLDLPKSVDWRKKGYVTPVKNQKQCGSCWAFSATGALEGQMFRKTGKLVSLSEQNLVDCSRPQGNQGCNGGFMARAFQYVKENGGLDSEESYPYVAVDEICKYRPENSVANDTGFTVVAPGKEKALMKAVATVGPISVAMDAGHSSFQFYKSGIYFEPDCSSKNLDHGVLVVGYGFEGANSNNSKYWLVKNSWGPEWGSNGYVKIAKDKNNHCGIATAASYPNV
# Cathepsin K = biological target: T4, Cathepsin K (Homo sapiens, UniProt P43235); experiment: Inhibition of cathepsin K (unknown origin) peincubated for 5 mins followed by Z-FR-MCA addition by spectrofluorimetric method
# T4 sequence (P43235 whole entry): T2 sequence (whole entry)
# Procathepsin L [5] = biological target: T1, Procathepsin L; experiment: Uncompetitive inhibition of cathepsin L (unknown origin) peincubated for 30 mins followed by substrate Z-FR-MCA addition measured after 10 mins by spectrofluorimetric method
# Target sequence in this assay (P07711 whole entry): as the sequence (P07711 whole entry) above
# Procathepsin L [6] = biological target: T1, Procathepsin L; experiment: Reversible inhibition of human liver cathepsin L peincubated for 30 mins followed by addition of 3.5 uM of substrate Z-FR-MCA measured after 10 mins by spectrofluorimetric method
# Target sequence in this assay (P07711 whole entry): as above
# Procathepsin L [7] = biological target: T1, Procathepsin L; experiment: Reversible inhibition of human liver cathepsin L peincubated for 30 mins followed by addition of 4 uM of substrate Z-FR-MCA measured after 10 mins by spectrofluorimetric method
# Target sequence in this assay (P07711 whole entry): as above
# Procathepsin L [8] = biological target: T1, Procathepsin L; experiment: Reversible inhibition of human liver cathepsin L peincubated for 30 mins followed by addition of 4.5 uM of substrate Z-FR-MCA measured after 10 mins by spectrofluorimetric method
# Target sequence in this assay (P07711 whole entry): as above
# Procathepsin L [9] = biological target: T1, Procathepsin L; experiment: Reversible inhibition of human liver cathepsin L peincubated for 30 mins followed by addition of 5 uM of substrate Z-FR-MCA measured after 10 mins by spectrofluorimetric method
# Target sequence in this assay (P07711 whole entry): as above
# Procathepsin L [10] = biological target: T1, Procathepsin L; experiment: Reversible inhibition of human liver cathepsin L peincubated for 30 mins followed by addition of 5.5 uM of substrate Z-FR-MCA measured after 10 mins by spectrofluorimetric method
# Procathepsin L [11] = biological target: T1, Procathepsin L; experiment: Reversible inhibition of human liver cathepsin L peincubated for 30 mins followed by addition of 6 uM of substrate Z-FR-MCA measured after 10 mins by spectrofluorimetric method
# Procathepsin L [12] = biological target: T1, Procathepsin L; experiment: Reversible inhibition of human liver cathepsin L peincubated for 30 mins followed by addition of 7 uM of substrate Z-FR-MCA measured after 10 mins by spectrofluorimetric method
# Procathepsin L [13] = biological target: T1, Procathepsin L; experiment: Reversible inhibition of human liver cathepsin L peincubated for 30 mins followed by addition of 8 uM of substrate Z-FR-MCA measured after 10 mins by spectrofluorimetric method
# Procathepsin L [14] = biological target: T1, Procathepsin L; experiment: Reversible inhibition of human liver cathepsin L peincubated for 30 mins followed by addition of 9 uM of substrate Z-FR-MCA measured after 10 mins by spectrofluorimetric method
SMILES,inhibition (Procathepsin L [2]),inhibition [3] [%],inhibition [4] [%],also measured
CCCCCCCC1OC1C(OC(=O)c1ccc(I)cc1)C(=O)NC1CCCCC1 (stereo not given),,,,pIC50 (Procathepsin L [1]): 5.66 and 5.37
CC(C)(C)NC(=O)C(OC(=O)c1ccccc1)[C@H]1O[C@@H]1c1ccccc1[N+](=O)[O-] (mixture of isomers),10.5%,21.5,21.3,
CCCC(=O)OC(C(=O)NCc1ccccc1)[C@H]1O[C@@H]1c1ccccc1[N+](=O)[O-] (mixture of isomers),2.9%,0,3.9,
CCCCCCC[C@H]1O[C@@H]1C(OC(=O)C1CCCCC1)C(=O)NCCCC (mixture of isomers),70%,,,
CCCCCCC[C@H]1O[C@@H]1C(OC(=O)CCCCCBr)C(=O)NC1CCCCC1 (mixture of isomers),69%,,,
CCCCCCC[C@H]1O[C@@H]1C(OC(=O)CCCCCBr)C(=O)NCCCC (mixture of isomers),69%,,,
CCCCCCC[C@H]1O[C@@H]1C(OC(=O)c1ccc(I)cc1)C(=O)NC(C)(C)C (mixture of isomers),65%,,,
CCCCCCC[C@H]1O[C@@H]1C(OC(=O)c1ccc(I)cc1)C(=O)NCCCC (mixture of isomers),74%,,,
CCCCCCCC1OC1C(OC(=O)c1ccc(I)cc1)C(=O)NC1CCCCC1 (mixture of isomers; form 1),,,,pIC50 (Procathepsin L [1]): 5.95
CCCCCCCC1OC1C(OC(=O)c1ccc(I)cc1)C(=O)NC1CCCCC1 (mixture of isomers; form 2),,,,pIC50 (Procathepsin L [1]): 5.69
"CCCCCCC[C@H]1O[C@@H]1C(OC(=O)[C@@H]1CCCN1C(=O)OC(C)(C)C)C(=O)NC(C)(C)C (single isomer, unassigned)",52.6%,39.3,0,

# Continued, in another order:
inhibition (Procathepsin L [2]),inhibition [3] [%],inhibition [4] [%],SMILES,also measured
98.5%,78,30.8,CCCCCCC[C@H]1O[C@@H]1C(OC(=O)c1ccc(I)cc1)C(=O)NC1CCCCC1 (mixture of isomers),pIC50 (Cathepsin K): 5.24; pKi (Procathepsin L [5]): 5.88; pIC50 (Procathepsin L [6]): 4.77; pIC50 (Procathepsin L [7]): 4.94; pIC50 (Procathepsin L [8]): 4.95; pIC50 (Procathepsin L [9]): 5.01; pIC50 (Procathepsin L [10]): 5.29; pIC50 (Procathepsin L [11]): 5.28; pIC50 (Procathepsin L [12]): 5.14; pIC50 (Procathepsin L [13]): 5.24; pIC50 (Procathepsin L [14]): 5.22
86.4%,69.1,43.5,CCCCCCC[C@H]1O[C@@H]1C(OC(=O)c1ccccc1)C(=O)NC(C)(C)C (mixture of isomers),pIC50 (Cathepsin K): 4.90
84%,,,CCCCCCCCNC(=O)C(OC(=O)CCCCCBr)[C@H]1O[C@@H]1c1ccccc1[N+](=O)[O-] (mixture of isomers),pIC50 (Procathepsin L [1]): 5.07
inactive,,,CCCCCCC[C@H]1O[C@@H]1C(OC(=O)C1CCCCC1)C(=O)NC(C)(C)C (mixture of isomers),
inactive,,,CCCCCCC[C@H]1O[C@@H]1C(OC(=O)CC(C)C)C(=O)NCCCC (mixture of isomers),
43%,,,CCCCCCC[C@H]1O[C@@H]1C(OC(=O)CC(C)C)C(=O)NCc1ccccc1 (mixture of isomers),
inactive,,,CCCCCCC[C@H]1O[C@@H]1C(OC(=O)CCCCCBr)C(=O)NC(C)(C)C (mixture of isomers),
67.3%,38.7,0,CCCCCCC[C@H]1O[C@@H]1C(OC(=O)[C@H]1CCCN1C(=O)OC(C)(C)C)C(=O)NC(C)(C)C (mixture of isomers),
inactive,,,CCCCCCC[C@H]1O[C@@H]1C(OC(=O)c1ccccc1)C(=O)NCC(=O)OC (mixture of isomers),
